Experimental data as given in article PMC8072159, “5-Bis-(2,6-difluoro-benzylidene) Cyclopentanone Acts as a Selective 11β-Hydroxysteroid Dehydrogenase one Inhibitor to Treat Diet-Induced Nonalcoholic Fatty Liver Disease in Mice” (Frontiers in Pharmacology, 2021).
Entries after “also recorded” stand apart in the source; their conditions may differ.

Test system: HFD-induced NAFLD mice
Assay: HFD-induced NAFLD mouse model, WZS08 by gavage for 100 days
Assay type: in vivo
Conditions: for Body weight / Dorsal adipose weight / Epididymal adipose weight / Mesenteric adipose weight / Thymic adipose weight / Total hepatic weight: mean ± SEM
Procedure: The KM mice were randomly divided into six groups, including a regular chow (Group C), HFD (Group M) as a model control group, HFD supplemented with various doses of WZS08, 1 (Group M + W1), 2 (Group M + W2), and 4 (Group + W4) mg/kg, 20 mice per group. Mice were housed five animals per cage. Mice were maintained at a constant temperature (25 ± 3°C) for a 12-h light-dark cycle with free access to food and water. After a week of diet adaptation, the mice were fed with WZS08 dissolved in 1% sodium carboxymethyl cellulose (CMC-Na) or 1% CMC-Na for 100 days alone. Each mouse was gavaged daily with 0.5 ml vehicle (1% CMC-Na) or drug in 1%CMC-Na. By the end of the treatment, the mice were killed by CO2, and the weights of body, liver, epididymal fat, mesenteric fat, and dorsal fat were measured. […]
Quantitative Real-Time Polymerase Chain Reaction
Total RNA was isolated from mouse liver using Trizol kit according to the manufacturer’s instruction. To reduce genomic DNA contamination, total RNAs were treated with ribonuclease-free deoxyribonuclease I (Thermo Fisher Scientific, Waltham, MA, United States) for 1 h at 37°C. 1 μg RNA was used to synthesize the first strand cDNA by reverse transcription kit. qPCR was carried out using SYBR GREEN as an indicator using Bio-Rad real time PCR system. The standard curve method was adopted as previously described ([Lv et al., 2019]). The Ct values were recorded after a series of diluted standards of mouse liver cDNAs, and the linear equation of Ct values vs. logarithm [dilution of standards] was generated, and the concentration of the target mRNA was calculated according to their Ct value. The result was normalized to Gapdh (encoding GAPDH) and Rps16 as the internal controls. The mRNA levels of Acs2 (encoding acetyl-CoA synthetase2), Hsd11b1 (encoding 11β–HSD1), Ldlr (encoding LDLR), Plin2 (encoding PLIN2), and Plin3 (encoding PLIN3) were evaluated. There were no changes in Gapdh and Rps16 mRNA levels between groups and the test mRNA levels were adjusted to Gapdh. Primer information is listed in Supplementary Table S1.
Measurement of Serum Insulin and Corticosterone Levels and Blood Lipid Levels
On the last day of the experiment, the mice were fasted for 6 h (with free access to drinking water), and then blood and tissues were sampled. Blood samples were collected. The blood sample was centrifuged at 5000 rpm for 10 min to collect the serum, and the serum was frozen at -40°C until use. According to standard clinical protocols, the levels of serum glucose, low-density lipoprotein (LDL), high-density lipoprotein (HDL), total cholesterol, and triglyceride (TG) were measured using Hitachi 7600 biochemical analyzer (Hitachi, Japan). In addition, serum insulin and corticosterone levels were evaluated using the ultrasensitive mouse insulin ELISA kit (CrystalChem, IL, USA) and the commercially available corticosterone ELISA kit (Abnova, Taiwan, China) according to the manufacturers’ instructions.
Protein Expression Analysis
Total hepatic protein extract was obtained as previously described ([Lazaro et al., 2013]). The protein was separated by SDS–PAGE and transferred to a 0.2 μm PVDF membrane. The primary antibodies used were: 11β-HSD1 (rabbit polyclonal antibody, Abcam, catalog # ab39364; being blocked with 11β-HSD1 peptide, #ab101097, San Francisco, CA), ACS2 (Abcam, catalog # ab229958, San Francisco, CA, United States), and β-actin (ACTB, Cell signaling, Danvers, MA, United States). Goat anti-rabbit HRP was used as a secondary antibody. Finally, chemiluminescence emitted by the immunoreactive protein was detected by an ECL advance agent, and visualized with a MicroChemi Imaging system and qualified by a densitometry using AlphaEaseFC (ProteinSample, CA, United States). Relative protein levels were normalized by ACTB.
Before hematoxylin and eosin (HE) staining, the livers of KM mice were fixed in 10% formalin, dehydrated, and embedded in paraffin, as previously described ([Andres-Manzano et al., 2015]). […]

[1] = HFD mice, 4 mg/kg (M + W4), 100 days
[2] = HFD mice, 1, 2, and 4 mg/kg, vs Group M, qPCR
[3] = HFD plus 1 mg/kg WZS08 (M + W1), 100 days
[4] = HFD plus 2 mg/kg WZS08 (M + W2), 100 days
[5] = HFD plus 4 mg/kg WZS08 (M + W4), 100 days

`O=C1/C(=C/c2c(F)cccc2F)CC/C1=C\c1c(F)cccc1F` [WZS08, (2E,5E)-2,5-bis(2,6-difluorobenzylidene) Cyclopentanone] was tested, and the Fabp4 expression (HFD mice, 1 mg/kg, 100 days) was “up-regulated”, the hepatic fat ratio (HFD mice, 1 mg/kg, 100 days) was “significantly reduced” and the serum cholesterol (HFD mice, 1 mg/kg, 100 days) was “significantly reduced”. The serum low-density lipoprotein (HFD mice, 1 mg/kg, 100 days) was “significantly reduced”, the serum triglycerides (HFD mice, 1 mg/kg, 100 days) was “significantly reduced” and the “serum HDL level” value [1] was “greatly reduced”. The “serum LDL level” value [1] was “greatly reduced”, the serum cholesterol level [1] was “greatly reduced” and the serum triglyceride level [1] was “greatly reduced”. The insulin index (HFD mice, 4 mg/kg, 100 days, vs HFD group) was “significantly lowered”, the serum insulin levels (HFD mice, 4 mg/kg, 100 days, vs HFD group, 4 mg/kg) was “significantly lowered; also recorded: completely reduced it to control level” and the “liver lipid content (HE staining)” value (HFD mice, 1, 2, 4 mg/kg) was “remarkably reduced”. For the same compound, the “insulin resistance (HOMA-IR)” value (HFD mice, 1, 2, 4 mg/kg, 100 days) was “dose-dependently reduced”, the body weight changes (HFD mice, 1, 2, 4 mg/kg, 100 days, vs HFD control) was “dose-dependently reduced” and the “Acs2 expression in liver” value [2] was “up-regulated”. For the same compound, the “Plin2 expression in liver” value [2] was “down-regulated”, the “morphology of the non-alcoholic fatty liver” value (HFD mice, 100 days) was “significantly improved” and the liver fat content (HFD mice, doses of 2 and 4 mg/kg) was “significantly decreased”. For the same compound, the Plin2 expression (HFD mice, liver, 1 mg/kg, 100 days) was “down-regulated”, the Body weight [3] was 52.46 ± 1.28 g and the Dorsal adipose weight [3] was 0.68 ± 0.092 g. It also gave an Epididymal adipose weight [3] of 2.05 ± 0.230 g, a Mesenteric adipose weight [3] of 0.64 ± 0.074 g and a Thymic adipose weight [3] of 0.08 ± 0.01 g. For the same compound, the Total hepatic weight [3] was 2.79 ± 0.12 g, the Body weight [4] was 50.25 ± 1.01 g and the Dorsal adipose weight [4] was 0.54 ± 0.049 g. The Epididymal adipose weight [4] was 1.52 ± 0.138 g, the Mesenteric adipose weight [4] was 0.55 ± 0.043 g and the Thymic adipose weight [4] was 0.06 ± 0.00 g. It also gave a Total hepatic weight [4] of 2.48 ± 0.06 g, a Body weight [5] of 49.00 ± 1.22 g and a Dorsal adipose weight [5] of 0.55 ± 0.070 g. The Epididymal adipose weight [5] was 1.54 ± 0.20 g, the Mesenteric adipose weight [5] was 0.54 ± 0.048 g and the Thymic adipose weight [5] was 0.077 ± 0.00 g. The Total hepatic weight [5] was 2.29 ± 0.06 g and the blood glucose (HFD-treated mice, oral administration) was “did not show significant changes”.
